From patent US10703765B2 (priority 2014, dated 2020)
Counter-ions that a name gives are not always drawn.

biological target: human σ1 receptor (Homo sapiens, UniProt Q99720); test: biochemical; assay type: binding; parameters: μ and σ1 dual binding: key to the marks not given beside the values; details: not given
Sequence (Q99720 whole entry): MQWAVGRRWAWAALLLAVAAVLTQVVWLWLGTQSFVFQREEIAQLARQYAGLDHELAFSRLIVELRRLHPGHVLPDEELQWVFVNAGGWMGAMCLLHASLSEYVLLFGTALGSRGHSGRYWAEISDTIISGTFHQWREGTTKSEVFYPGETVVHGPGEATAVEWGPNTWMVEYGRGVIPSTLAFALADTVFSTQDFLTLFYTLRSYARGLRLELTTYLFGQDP

Compound | μ and σ1 dual binding | Ki [nM]
CC1OC2(CCN(CCc3ccccc3)CC2)CN(CC2CCOCC2)C1=O.Cl (stereo not shown) [Example 163, 2-methyl-9-phenethyl-4-((tetrahydro-2H-pyran-4-yl)methyl)-1-oxa-4,9-diazaspiro[5.5]undecan-3-one hydrochloride] | ++ | –
Cl.O=C1COC2(CCN(CCc3ccccc3)CC2)CN1Cc1nccn1Cc1ccccc1 [Example 168, 4-((1-benzyl-1H-imidazol-2-yl)methyl)-9-phenethyl-1-oxa-4,9-diazaspiro[5.5]undecan-3-one hydrochloride] | ++ | –
CC1OC2(CCN(CCc3ccccc3)CC2)CN(c2ccc3cnn(C)c3c2)C1=O.Cl (stereo not shown) [Example 201, 2-methyl-4-(1-methyl-1H-indazol-6-yl)-9-phenethyl-1-oxa-4,9-diazaspiro[5.5]undecan-3-one hydrochloride] | ++ | –
CC1OC2(CCN(CCc3ccccc3)CC2)CN(Cc2cccnc2)C1=O (stereo not shown) [Example 159, 2-methyl-9-phenethyl-4-(pyridin-3-ylmethyl)-1-oxa-4,9-diazaspiro[5.5]undecan-3-one hydrochloride] | – | < 100
CC1OC2(CCN(CCc3ncccc3C(F)(F)F)CC2)CN(c2ccccc2)C1=O (stereo not shown) [Example 33, 2-methyl-4-phenyl-9-(2-(3-(trifluoromethyl)pyridin-2-yl)ethyl)-1-oxa-4,9-diazaspiro[5.5]undecan-3-one hydrochloride] | – | < 500
COC(=O)c1ccc(CCN2CCC3(CC2)CN(c2ccccc2)C(=O)C(C)O3)cc1.Cl (stereo not shown) [Example 70, methyl 4-(2-(2-methyl-3-oxo-4-phenyl-1-oxa-4,9-diazaspiro[5.5]undecan-9-yl)ethyl)benzoate hydrochloride] | ++ | –
COc1ccccc1CCN1CCC2(CC1)CN(c1ccccc1F)C(=O)C(C(C)C)O2 (stereo not shown) [Example 137, 4-(2-fluorophenyl)-2-isopropyl-9-(2-methoxyphenethyl)-1-oxa-4,9-diazaspiro[5.5]undecan-3-one hydrochloride] | – | < 100
CC(C)CCN1CCC2(CC1)CN(c1ccccc1F)C(=O)C(C)O2.Cl (stereo not shown) [Example 81, 4-(2-fluorophenyl)-9-isopentyl-2-methyl-1-oxa-4,9-diazaspiro[5.5]undecan-3-one hydrochloride] | ++ | –
CC(C)C1OC2(CCN(CCc3ccccc3O)CC2)CN(c2ccccc2F)C1=O (stereo not shown) [Example 297, 4-(2-fluorophenyl)-9-(2-hydroxyphenethyl)-2-isopropyl-1-oxa-4,9-diazaspiro[5.5]undecan-3-one] | – | < 100

same assay, conditions: combined class from Ki-σ1 (human σ1 receptor, A1) and Ki-μ (human μ-opioid receptor, A2) radioligand binding

Compound | μ and σ1 dual binding
Oc1ccccc1CCN1CCC2(CC1)CN(c1ccccc1)CCO2 [Example 321, 2-(2-(4-phenyl-1-oxa-4,9-diazaspiro[5.5]undecan-9-yl)ethyl)phenol] | ++
O=C1COC2(CCN(Cc3ccccc3)CC2)CN1c1ccccc1O [Example 285, 9-benzyl-4-(2-hydroxyphenyl)-1-oxa-4,9-diazaspiro[5.5]undecan-3-one] | ++

same assay, conditions: read-out: μ and σ1 dual binding

Compound | Ki [nM]
CNC(=O)c1ccc(CCN2CCC3(CC2)CN(c2ccccc2)C(=O)C(C)O3)cc1 (stereo not shown) [Example 274, N-methyl-4-(2-(2-methyl-3-oxo-4-phenyl-1-oxa-4,9-diazaspiro[5.5]undecan-9-yl)ethyl)benzamide hydrochloride] | < 500
O=C1COC2(CCN(CCc3ccccc3)CC2)CN1c1ccccc1 [Example 5, 9-phenethyl-4-phenyl-1-oxa-4,9-diazaspiro[5.5]undecan-3-one] | < 500
CNC(=O)CCN1CC2(CCN(CCc3ccccc3)CC2)OC2(CC2)C1=O [Example 275, N-methyl-3-[13-oxo-8-phenethyl-4-oxa-8,12-diazadispiro[2.1.5.3]tridecan-12-yl]propanamide hydrochloride] | > 500
O=C1COC2(CCN(CCc3ccccc3)CC2)CN1Cc1ccccn1 [Example 86, 9-phenethyl-4-(pyridin-2-ylmethyl)-1-oxa-4,9-diazaspiro[5.5]undecan-3-one hydrochloride] | < 100
O=C1N(c2ncccc2C(F)(F)F)CC2(CCN(CCc3cc(F)ccc3F)CC2)OC12CC2 [Example 343, 8-(2,5-difluorophenethyl)-12-(3-(trifluoromethyl)pyridin-2-yl)-4-oxa-8,12-diazadispiro[2.1.5.3]tridecan-13-one] | < 500
CC1OC2(CCN(CCc3ccc(S(N)(=O)=O)cc3)CC2)CN(c2ccccc2)C1=O (stereo not shown) [Example 108, 4-(2-(2-methyl-3-oxo-4-phenyl-1-oxa-4,9-diazaspiro[5.5]undecan-9-yl)ethyl)benzenesulfonamide] | > 500
O=C1N(c2ncccc2C(F)(F)F)CC2(CCN(CCc3ccccc3F)CC2)OC12CC2 [Example 220, 8-(2-fluorophenethyl)-12-(3-(trifluoromethyl)pyridin-2-yl)-4-oxa-8,12-diazadispiro[2.1.5.3]tridecan-13-one hydrochloride] | < 500
Oc1ccccc1CCN1CCC2(CC1)CN(Cc1ccccc1)CCO2 [Example 299, 2-(2-(4-benzyl-1-oxa-4,9-diazaspiro[5.5]undecan-9-yl)ethyl)phenol] | < 100
